Data as given in the supplement of paper PMC5752671.

Tests used:
Assay in all cases: area under dose-response curve (cell viability) (AUC (arbitrary, % viability x log concentration)); higher = less sensitive (more viable)
Conditions in all cases: 4 days
HL60 = tested on: HL60
Procedure, shortened: (§1)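 Drugs were dispensed robotically, one day after plating, onto fourteen leukemia cell lines in 384-well plates coated with extracellular matrix. Each drug was tested in duplicate at eight concentrations spanning 4–5 logs inside 10^–12–10^–4 M, adjusted per drug, and CellTiter-Glo readout followed after 4 days. Duplicates were averaged and a four-parameter sigmoid was fitted. The area under that fitted curve is the reported value.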

OCI-AML2 = tested on: OCI-AML2
Procedure, shortened: as §1

KASUMI1 = tested on: KASUMI1
Procedure, shortened: as §1

NB4 = tested on: NB4
Procedure, shortened: as §1

MOLM/13 = tested on: MOLM/13
Procedure, shortened: as §1

EOL-1 = tested on: EOL-1
Procedure, shortened: as §1

KG1 = tested on: KG1
Procedure, shortened: as §1

U937 = tested on: U937
Procedure, shortened: as §1

MV4.11 = tested on: MV4.11
Procedure, shortened: as §1

THP-1 = tested on: THP-1
Procedure, shortened: as §1

| SMILES | area under dose-response curve (HL60) | area under dose-response curve (OCI-AML2) | area under dose-response curve (KASUMI1) | area under dose-response curve (NB4) | area under dose-response curve (MOLM/13) | area under dose-response curve (EOL-1) | area under dose-response curve (KG1) | area under dose-response curve (U937) | area under dose-response curve (MV4.11) | area under dose-response curve (THP-1) |
| --- | --- | --- | --- | --- | --- | --- | --- | --- | --- | --- |
| CC(=O)c1c(C)c2cnc(Nc3ccc(N4CCNCC4)cn3)nc2n(C2CCCC2)c1=O | 474 | 385 | 452 | 462 | 439 | 417 | 534 | 393 | 423 | 531 |
| CC(C)CC(=O)Nc1n[nH]c2c1CN(C(=O)C1CCN(C)CC1)C2(C)C | 522 | 268 | 463 | 258 | 329 | 353 | 556 | 283 | 352 | 476 |
| CN1CC[C@@H](NC(=O)Nc2ccc(C#N)cc2)C[C@@H]1c1nc2ccccc2[nH]1 | 632 | 559 | 664 | 607 | 583 | 642 | 666 | 608 | 584 | 655 |
| COc1ccc(-c2cc3c(C)nc(N)nc3n([C@H]3CC[C@H](OCCO)CC3)c2=O)cn1 | 414 | 413 | 403 | 458 | 423 | 385 | 475 | 397 | 387 | 451 |
| COc1ccc2c(c1)CCC1C2CCC2(C)C(NCCCCCCN3C(=O)C=CC3=O)CCC12 (stereo not given) | 512 | 656 | 509 | 645 | 658 | 523 | 522 | 589 | 644 | 608 |
| Cc1cnc(Nc2ccc(OCCN3CCCC3)cc2)nc1Nc1cccc(S(=O)(=O)NC(C)(C)C)c1 | 617 | 505 | 544 | 563 | 400 | 389 | 532 | 562 | 392 | 624 |
| NC(=O)c1ccc(-c2nc(-c3ccccn3)c(-c3ccc4c(c3)OCO4)[nH]2)cc1 | 824 | 619 | 822 | 600 | 692 | 600 | 800 | 695 | 665 | 796 |
| O=C(NC[C@H](O)CO)c1ccncc1Nc1ccc(I)cc1F | 276 | 109 | 323 | 355 | 520 | 347 | 373 | 536 | 432 | 421 |
| O=C(NOC[C@H](O)CO)c1ccc(F)c(F)c1Nc1ccc(I)cc1F | 209 | 57.4 | 299 | 309 | 492 | 297 | 355 | 505 | 344 | 414 |
| O=C1NC(=O)/C(=C\c2ccc3nccnc3c2)S1 | 647 | 634 | 642 | 605 | 637 | 679 | 666 | 648 | 665 | 679 |
| O=C1NC(=O)c2c1c1c3ccccc3n3c1c1c2c2ccccc2n1[C@H]1CC[C@@H]3O1 | 751 | 571 | 639 | 605 | 606 | 522 | 654 | 679 | 532 | 750 |
| OCCn1cc(-c2cnc3nnn(Cc4ccc5ncccc5c4)c3n2)cn1 | 645 | 540 | 638 | 567 | 566 | 616 | 664 | 604 | 557 | 662 |
| Nc1ncnc2c1c(I)cn2[C@@H]1O[C@H](CO)[C@@H](O)[C@H]1O [5-Iodotubercidin] | 457 | 489 | 461 | 516 | 427 | 470 | 422 | 501 | 313 | 530 |
| CC1(C)CCC(c2ccc(Cl)cc2)=C(CN2CCN(c3ccc(C(=O)NS(=O)(=O)c4ccc(N[C@H](CCN5CCOCC5)CSc5ccccc5)c(S(=O)(=O)C(F)(F)F)c4)cc3)CC2)C1 [ABT-263] | 496 | 504 | 490 | 642 | 542 | 495 | 528 | 620 | 526 | 612 |
| Cl[TeH]1(Cl)(Cl)OCCO1.N [AS101] | 703 | 547 | 691 | 542 | 556 | 626 | 605 | 584 | 582 | 626 |
| O=C(NC1CCNCC1)c1n[nH]cc1NC(=O)c1c(Cl)cccc1Cl [AT-7519] | 544 | 406 | 519 | 488 | 431 | 437 | 570 | 414 | 445 | 500 |
| CN1CCN(CCOc2cc(OC3CCOCC3)c3c(Nc4c(Cl)ccc5c4OCO5)ncnc3c2)CC1 [AZD0530] | 818 | 646 | 772 | 614 | 671 | 565 | 749 | 663 | 617 | 783 |
| COc1cc2c(Oc3ccc4[nH]c(C)cc4c3F)ncnc2cc1OCCCN1CCCC1 [AZD2171] | 785 | 668 | 673 | 614 | 659 | 263 | 307 | 724 | 656 | 751 |
| NC(=O)Nc1cc(-c2cccc(F)c2)sc1C(=O)N[C@H]1CCCNC1 [AZD7762] | 471 | 348 | 408 | 378 | 5.84 | 6.62 | 405 | 341 | 29.7 | 365 |
| Cc1cc(C(=O)NOCCO)c(Nc2ccc(I)cc2F)n(C)c1=O [AZD8330] | 405 | 33.6 | 375 | 348 | 416 | 169 | 371 | 465 | 317 | 424 |

| SMILES | area under dose-response curve (HL60) | area under dose-response curve (OCI-AML2) | area under dose-response curve (KASUMI1) | area under dose-response curve (NB4) | area under dose-response curve (MOLM/13) | area under dose-response curve (EOL-1) | area under dose-response curve (KG1) | area under dose-response curve (U937) | area under dose-response curve (MV4.11) | area under dose-response curve (THP-1) |
| --- | --- | --- | --- | --- | --- | --- | --- | --- | --- | --- |
| Cn1cnc2c(F)c(Nc3ccc(Br)cc3Cl)c(C(=O)NOCCO)cc21 [AZD-6244] | 458 | 338 | 528 | 519 | 662 | 509 | 578 | 657 | 565 | 627 |
| COc1ccc(-c2ccc3c(N4CCOC[C@@H]4C)nc(N4CCOC[C@@H]4C)nc3n2)cc1CO [AZD-8055] | 537 | 394 | 440 | 526 | 396 | 296 | 369 | 310 | 338 | 379 |
| CNC(=O)c1ccccc1Sc1ccc2c(/C=C/c3ccccn3)n[nH]c2c1 [Axitinib] | 713 | 577 | 538 | 620 | 610 | 325 | 479 | 635 | 573 | 697 |
| Nc1ncn([C@@H]2O[C@H](CO)[C@@H](O)[C@H]2O)c(=O)n1 [Azacitidine] | 647 | 532 | 603 | 493 | 505 | 481 | 666 | 623 | 560 | 667 |
| Cc1ccc(S(=O)(=O)/C=C/C#N)cc1 [BAY 11-7082] | 474 | 516 | 466 | 534 | 528 | 527 | 495 | 499 | 494 | 492 |
| CC(C)(C)c1ccc(S(=O)(=O)/C=C/C#N)cc1 [BAY 11-7085] | 443 | 536 | 445 | 518 | 533 | 480 | 487 | 500 | 518 | 537 |
| Cn1c(=O)n(-c2ccc(C(C)(C)C#N)cc2)c2c3cc(-c4cnc5ccccc5c4)ccc3ncc21 [BEZ-235] | 512 | 403 | 447 | 489 | 435 | 373 | 483 | 374 | 436 | 505 |
| COc1ccc(-c2ccc3ncc4c(c3c2)n(-c2ccc(N3CCNCC3)c(C(F)(F)F)c2)c(=O)n4C)cn1 [BGT-226] | 452 | 356 | 366 | 448 | 403 | 344 | 354 | 325 | 399 | 415 |
| CC[C@@H]1C(=O)N(C)c2cnc(Nc3ccc(C(=O)NC4CCN(C)CC4)cc3OC)nc2N1C1CCCC1 [BI-2536] | 79.3 | 5.96 | 118 | 18.2 | 7.65 | 10.5 | 84.8 | 5.36 | 4.22 | 131 |
| COC(=O)c1ccc2c(c1)NC(=O)/C2=C(\Nc1ccc(N(C)C(=O)CN2CCN(C)CC2)cc1)c1ccccc1 [BIBF1120] | 758 | 660 | 571 | 658 | 505 | 325 | 636 | 698 | 489 | 758 |
| CN(C)C/C=C/C(=O)Nc1cc2c(Nc3ccc(F)c(Cl)c3)ncnc2cc1O[C@H]1CCOC1 [BIBW 2992] | 663 | 600 | 641 | 598 | 625 | 477 | 623 | 625 | 535 | 664 |
| O=C(/C=C/c1cccc(S(=O)(=O)Nc2ccccc2)c1)NO [Belinostat] | 550 | 370 | 524 | 445 | 465 | 324 | 399 | 388 | 348 | 452 |
| C=C(c1ccc(C(=O)O)cc1)c1cc2c(cc1C)C(C)(C)CCC2(C)C [Bexarotene] | 661 | 520 | 672 | 644 | 529 | 341 | 662 | 608 | 339 | 584 |
| O=c1c(N=Nc2ccc(S(=O)(=O)O)cc2)c(-c2ccc([N+](=O)[O-])cc2)[nH]n1-c1ccccc1 [PHPS1] | 674 | 614 | 683 | 655 | 627 | 690 | 690 | 630 | 676 | 646 |
| Oc1cccc(-c2nc(N3CCOCC3)c3oc4ncccc4c3n2)c1 [PI-103] | 453 | 477 | 409 | 545 | 496 | 422 | 525 | 412 | 482 | 478 |
| Cc1ccc([N+](=O)[O-])cc1S(=O)(=O)N(C)/N=C/c1cnc2ccc(Br)cn12 [PIK-75] | 363 | 353 | 373 | 413 | 339 | 335 | 390 | 371 | 314 | 380 |
| COc1ccc2c3n(c(=NC(=O)c4cccnc4)nc2c1OC)CCN3 [PIK-90] | 512 | 575 | 500 | 612 | 624 | 559 | 626 | 586 | 580 | 563 |
| CO[C@@H]1[C@H](N(C)C(=O)c2ccccc2)C[C@H]2O[C@]1(C)n1c3ccccc3c3c4c(c5c6ccccc6n2c5c31)C(=O)NC4 [PKC412] | 643 | 441 | 499 | 505 | 310 | 245 | 455 | 454 | 279 | 633 |
| CN(C)C1CCN(C(=O)c2ccc(NC(=O)Nc3ccc(-c4nc(N5CCOCC5)nc(N5CCOCC5)n4)cc3)cc2)CC1 [PKI-587] | 437 | 374 | 463 | 447 | 346 | 307 | 548 | 255 | 363 | 465 |
